Assay results as given in US11976083B2, “Inhibitors of peptidylarginine deiminases” (Gilead Sciences, Inc., priority 2020, dated 2024).

These compounds were tested against T1, human PAD4 (Homo sapiens, UniProt Q9UM07) (assay: In vitro PAD4 BAEE biochemical assay). Conditions: BAEE substrate 3 mM, 5 nM PAD4, 2 mM calcium chloride; geometric mean of multiple experiments.
T1 construct: human PAD4 (NM_012387), A2-P663, was PCR amplified; His-SUMO (N, cleaved yes); made in house; host or cells: E. coli BL21(DE3)
Procedure, shortened: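 Ammonia produced by BAEE deimination (3 mM substrate, 2 h, 25 °C) was read as fluorescent isoindole after o-phthalaldehyde/DTT derivatization, ex 405 nm/em 535 nm. Human PAD4 at 5 nM final, 2 mM calcium, pH 7.6 MOPS; compound preincubated 30 min. IC50s, normalized to BB-Cl-Amidine and DMSO controls, were geometric-mean averaged.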

T1 sequence (Q9UM07 2-663): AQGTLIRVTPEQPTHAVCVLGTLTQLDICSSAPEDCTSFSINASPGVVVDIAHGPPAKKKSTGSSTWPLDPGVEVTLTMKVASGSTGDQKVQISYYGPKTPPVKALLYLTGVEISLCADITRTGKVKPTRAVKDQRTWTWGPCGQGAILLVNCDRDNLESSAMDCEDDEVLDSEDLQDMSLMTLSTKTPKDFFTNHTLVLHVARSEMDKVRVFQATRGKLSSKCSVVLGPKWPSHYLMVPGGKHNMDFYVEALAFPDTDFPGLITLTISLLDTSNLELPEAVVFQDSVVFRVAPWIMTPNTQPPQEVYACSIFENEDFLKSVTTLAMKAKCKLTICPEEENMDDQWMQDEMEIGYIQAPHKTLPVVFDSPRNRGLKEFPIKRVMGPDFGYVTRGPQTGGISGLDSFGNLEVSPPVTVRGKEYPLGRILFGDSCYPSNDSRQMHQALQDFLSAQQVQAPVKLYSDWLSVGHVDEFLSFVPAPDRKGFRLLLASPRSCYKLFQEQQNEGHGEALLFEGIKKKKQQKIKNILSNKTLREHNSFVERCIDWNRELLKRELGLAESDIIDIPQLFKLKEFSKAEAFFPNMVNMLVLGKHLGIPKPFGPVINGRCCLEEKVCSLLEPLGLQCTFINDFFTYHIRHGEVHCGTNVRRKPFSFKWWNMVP

IC50 | Compound
270 nM | COc1cc(C(=O)N2CC[C@@H](OC(F)F)[C@@H](N)C2)cc2nc(-c3cc4ccc5nc4n3CC(F)(F)CCCC[C@@](C)(C(F)(F)F)C(=O)N[C@@H]5C)n(C)c12 [Example 730, (8~{R},11~{R})-17-[5-[(3~ {S},4~{R})-3-amino-4-(difluoromethoxy)piperidine-1-carbonyl]-7-methoxy-1-methyl-benzimidazol-2-yl]-3,3-difluoro-8,11-dimethyl-8-(trifluoromethyl)-1,10,19-triazatricyclo [10.5.2.0^{15,18}]nonadeca-12(19),13,15(18),16-tetraen-9-one]
20 nM | C[C@H]1NC(=O)C(C)(C)CCCCCn2c(-c3nc4cc(C(=O)N5C[C@H](N)[C@@H]6CC[C@H]5C6)cc(F)c4n3C3CC3)cc3ccc1nc32 [Example 684, (10~{R})-16-[5-[(1~{S}, 4~{R},5~{R})-4-amino-2-azabicyclo [3.2.1]octane-2-carbonyl]-1-cyclopropyl-7-fluoro-benzimidazol-2-yl]-7,7,10-trimethyl-1,9,18-triazatricyclo[9.5.2.0^ {14,17}]octadeca-11(18), 12,14(17),15-tetraen-8-one]
114 nM | COc1cc(C(=O)N2CC[C@@H](OC)[C@@H](N)C2)cc2nc(-c3cc4ccc5nc4n3CC(F)(F)CCCCC3(CCC3)C(=O)N[C@@H]5C)n(C)c12 [Example 614, (11~{R})-17-[5-[(3~{S},4~ {R})-3-amino-4-methoxy-piperidine-1-carbonyl]-7-methoxy-1-methyl-benzimidazol-2-yl]-3,3-difluoro-11-methyl-spiro[1,10,19-triazatricyclo[10.5.2.0^ {15,18}]nonadeca-12,14,16,18-tetraene-8,1′-cyclobutane]-9-one]
80 nM | COc1cc(C(=O)N2C[C@H](N)[C@@H]3CC[C@H]2C3)cc2nc(-c3cc4ccc5nc4n3CC(F)(F)CCCCC3(CC3)C(=O)N[C@@H]5C)n(C3CC3)c12 [Example 940, (11~{R})-17-[5-[(1~{S},4~{R}, 5~{R})-4-amino-2-azabicyclo [3.2.1]octane-2-carbonyl]-1-cyclopropyl-7-methoxy-benzimidazol-2-yl]-3,3-difluoro-11-methyl-spiro[1,10,19-triazatricyclo [10.5.2.0^{15,18}]nonadeca-12(19),13,15(18),16-tetraene-8,1′-cyclopropane]-9-one]
126 nM | CO[C@@H]1CCN(C(=O)c2cc(F)c3c(c2)nc(-c2cc4ccc5nc4n2CC(F)(F)CCC[C@@H]2C[C@H]2C(=O)N[C@@H]5C)n3[C@H]2C[C@@H]2F)C[C@@H]1N [Example 834, (2~{R},5~{R},7~{R})-14-[5-[(3~{S),4~{R})-3-amino-4-methoxy-piperidine-1-carbonyl]-7-fluoro-1-[(1~{S},2~{S})-2-fluorocyclopropyl]benzimidazol-2-yl]-11,11-difluoro-2-methyl-3,13,19-triazatetracyclo [11.5.2.0^{5,7}.0^{16,20}] icosa-1(19),14,16(20), 17-tetraen-4-one]
63 nM | COc1cc(C(=O)N2CC[C@@H](OC)[C@@H](N)C2)cc2nc(-c3cc4ccc5nc4n3CCCCC[C@@H]3C[C@H]3C(=O)NC5(C)C)n(C)c12 [Example 782, (5˜{R},7˜{R})-14-[5-[(3˜{S},4˜{R})-3-amino-4-methoxy-piperidine-1-carbonyl]-7-methoxy-1-methyl-benzimidazol-2-yl]-2,2-dimethyl-3,13,19-triazatetracyclo[11.5.2.0^{5,7}.0^{16,20}]icosa-1(18),14,16,19-tetraen-4-one]
26 nM | C[C@H]1NC(=O)c2ccc(Cl)nc2CC[C@H]2C[C@@H]2Cn2c(-c3nc4cc(C(=O)N5C[C@H](N)[C@@H]6CC[C@H]5C6)cc(F)c4n3C3CC3)cc3ccc1nc32 [Example 878, (3~{S},5~{S},16~{R})-22-[5-[(1~{S},4~{R},5~{R})-4-amino-2-azabicyclo[3.2.1]octane-2-carbonyl]-1-cyclopropyl-7-fluoro-benzimidazol-2-yl]-10-chloro-16-methyl-1,9,15,24-tetrazapentacyclo [15.5.2.0^{3,5}.0^ {8,13}.0^{20,23}]tetracosa-8(13),9,11,17(24),18,20(23), 21-heptaen-14-one]

Further lines, the compound ahead of its results:

Compound | IC50
COc1cc(C(=O)N2CCC[C@@H](N)C2)cc2nc(-c3cc4ccc5nc4n3C[C@H]3C[C@H]3COC[C@H](C)C(=O)N[C@@H]5C)n(C)c12 (single isomer, unassigned) [Example 313, (3˜{S},5˜{R},9˜{S},12˜{R})-18-[5-[(3˜{R})-3-aminopiperidine-1-carbonyl]-7-methoxy-1-methyl-benzimidazol-2-yl]-9,12-dimethyl-7-oxa-1,11,20-triazatetracyclo[11.5.2.0^{3,5}.0^{16,19}]icosa-13(20),14,16(19),17-tetraen-10-one] | 85 nM
COc1cc(C(=O)N2C[C@H](N)[C@@H]3CC[C@H]2C3)cc2nc(-c3cc4ccc5cc4n3CCCCCCC(C)(C)C(=O)N[C@@H]5C)n(C)c12 [Example 465, (11~{R})-17-[5-[(1~{S},4~{R},5~{R})-4-amino-2-azabicyclo[3.2.1]octane-2-carbonyl]-7-methoxy-1-methyl-benzimidazol-2-yl]-8,8,11-trimethyl-1,10-diazatricyclo[10.5.2.0^{15,18}]nonadeca-12(19),13,15(18),16-tetraen-9-one] | 23 nM
C[C@H]1NC(=O)[C@]2(C)C[C@H]2CCCC(F)(F)Cn2c(-c3nc4cc(C(=O)N5[C@H]6CC[C@@H]5[C@H](N)C6)c(F)cc4n3C)cc3ccc1nc32 [Example 554, (2~{R},5~{R},7~ {R})-14-[5-[(1~{R},2~ {R},4~{S})-2-amino-7-azabicyclo[2.2.1]heptane-7-carbonyl]-6-fluoro-1-methyl-benzimidazol-2-yl]-11,11-difluoro-2,5-dimethyl-3,13,19-triazatetracyclo[11.5.2.0^ {5,7}.0^{16,20}]icosa-1(19), 14,16(20),17-tetraen-4-one] | 34 nM
C[C@H]1NC(=O)[C@@H]2C[C@@H]2C/C=C\CCn2c(-c3nc4cc(C(=O)N[C@H]5CNCC[C@@H]5F)c(F)cc4n3C3CC3)cc3ccc1nc32 [Example 519, 1-cyclopropyl-6-fluoro-~{N}-[(3~{S},4~{S})-4-fluoro-3-piperidyl]-2-[(2~{R}, 5~{R},7~{S},9~{Z})-2-methyl-4-oxo-3,13,19-triazatetracyclo[11.5.2.0^ {5,7}.0^{16,20}]icosa-1 (19),9,14,16(20),17-pentaen-14-yl]benzimidazole-5-carboxamide] | 44 nM
COc1cc(C(=O)N2CCC[C@@H](N)C2)cc2nc(-c3cc4ccc5nc4n3CCCCCCCC(=O)NC5)n(C)c12 [Example 232, 17-[5-[(3~{R})-3-aminopiperidine-1-carbonyl]-7-methoxy-1-methyl-benzimidazol-2-yl]-1,10,19-triazatricyclo[10.5.2.0^{15,18}]nonadeca-12(19),13,15(18),16-tetraen-9-one] | 549 nM
COc1cc(C(=O)N[C@H]2CNCC[C@@H]2F)cc2nc(-c3cc4ccc5nc4n3C[C@H]3C[C@H]3COCCC(=O)N[C@@H]5C)n(C)c12 [Example 315, ~{N}-[(3~{S},4~{S})-4-fluoro-3-piperidyl]-7-methoxy-1-methyl-2-[(3~{S},5~{R},12~{R})-12-methyl-10-oxo-7-oxa-1,11,20-triazatetracyclo[11.5.2.0^{3,5}.0^{16,19}]icosa-13(20),14,16(19),17-tetraen-18-yl]benzimidazole-5-carboxamide] | 45 nM
COc1cc(C(=O)N2CC(N)CC(F)(F)C2)cc2nc(-c3cc4ccc5nc4n3CCCCCCC(C)(C)C(=O)N[C@@H]5C)n(C)c12 (stereo partly drawn) [Example 204, (11~{R})-17-[5-(5-amino-3,3-difluoro-piperidine-1-carbonyl)-7-methoxy-1-methyl-benzimidazol-2-yl]-8,8,11-trimethyl-1,10,19-triazatricyclo[10.5.2.0^{15,18}]nonadeca-12(19),13,15(18),16-tetraen-9-one] | 3350 nM
COc1cc(C(=O)N2CCC[C@@H](N)C2)cc2nc(-c3cc4ccc5nc4n3C[C@@H]3C[C@H]3CCCC(C)(C)C(=O)N[C@@H]5C)n(C)c12 [Example 274, (3˜{R},5˜{R},12˜{R})-18-[5-[(3˜{R})-3-aminopiperidine-1-carbonyl]-7-methoxy-1-methyl-benzimidazol-2-yl]-9,9,12-trimethyl-1,11,20-triazatetracyclo[11.5.2.0^{3,5}.0^{16,19}]icosa-13(20),14,16(19),17-tetraen-10-one] | 104 nM
C[C@H]1NC(=O)c2ccc(Cl)nc2CCCCCn2c(-c3nc4cc(C(=O)N5C[C@H](N)[C@@H]6CC[C@H]5C6)cc(F)c4n3C)cc3ccc1nc32 [Example 469, (2~{R})-17-[5-[(1~{S),4~{R},5~{R})-4-amino-2-azabicyclo[3.2.1]octane-2-carbonyl]-7-fluoro-1-methyl-benzimidazol-2-yl]-8-chloro-2-methyl-3,9,16,22-tetrazatetracyclo[14.5.2.0^{5,10).0^ {19,23)]tricosa-1(21),5(10),6,8,17,19,22-heptaen-4-one] | 21 nM
COc1cc(C(=O)N2CCC[C@@H](N)C2)cc2nc(-c3cc4ccc5nc4n3CCCCCCCC(=O)N[C@@H]5C)c(C)n12 [Example 301, (11~{R})-17-[7-[(3~{R})-3-aminopiperidine-1-carbonyl]-5-methoxy-3-methyl-imidazo[1,2-a]pyridin-2-yl]-11-methyl-1,10,19-triazatricyclo[10.5.2.0^{15,18}]nonadeca-12(19),13,15(18),16-tetraen-9-one] | 36 nM
COc1cc(C(=O)N2CC[C@H]3OCCN[C@H]3C2)cc2nc(-c3cc4ccc5cc4n3CCCCCCC3(CC3)C(=O)N[C@@H]5C)n(C)c12 [Example 208, (11~{R})-17-[5-[(4~{a}-{S},8~{a}~{R})-2,3,4,4~{a},5,7,8,8~{a}-octahydropyrido[4,3-b][1,4]oxazine-6-carbonyl]-7-methoxy-1-methyl-benzimidazol-2-yl]-11-methyl-spiro[1,10-diazatricyclo[10.5.2.0^{15,18}]nonadeca-12(19),13,15(18),16-tetraene-8,1′-cyclopropane]-9-one] | 136 nM
